The text below walks through data of US20250032524A1, “BROAD SPECTRUM AMINOGLYCOSIDES AND USES THEREOF” (REVAGENIX, INC., priority 2022, published 2025).

By MIC50 is commonly meant an inhibitory concentration at the 50% level, which refers to growth in some studies and to a panel of isolates in others. In general, MIC90 refers to an inhibitory concentration at the 90% level, which refers to growth in some studies and to a panel of isolates in others.

Format in all cases: cell-based
In test [1] the test system is AG-resistant P. aeruginosa. Kind of test: Antibacterial surveillance of clinical isolates (MIC50/90). The settings on record: Pseudomonas aeruginosa, 50 isolates with defined aminoglycoside resistance; for MIC50: read-out: MIC50; for MIC90: read-out: MIC90. The essentials:
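Isolates were suspended to 5×10^5 CFU/mL final in cation-adjusted Mueller-Hinton broth containing 2-fold serial compound dilutions, then incubated 18-24 hours at 35° C in ambient air. The MIC was read as no visible growth (OD 600 nm<0.05), and MIC50/MIC90 were derived across each isolate set.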

The subject of test [2] is clinical isolates of multi-drug resistant bacterial pathogens including A. baumannii, MRSA, P. aeruginosa, and CRE. Kind of test: MIC secondary panel, overall statement. As to conditions: read-out: minimum inhibitory concentration (MIC) values. The procedure:
(§1) Minimum inhibitory concentrations for representative example compounds herein were determined by a broth microdilution method in accordance with the Clinical and Laboratory Standards Institute (CLSI) guidelines. In brief, organism suspensions were adjusted to a 0.5 McFarland standard to yield a final inoculum between 3×10^5 and 7×10^5 colony-forming units (CFU)/mL. The inoculum was prepared by suspension of a colony from an agar plate that was prepared the previous day. Compound dilutions and inoculum were prepared in sterile, cation adjusted Mueller-Hinton Broth (Beckton Dickinson).
(§2) Bacteria were suspended in sterile saline and added to each assay plate to obtain a final concentration of 5×10^5 CFU/mL. An inoculum volume of 100 μL was added to wells containing 100 μL of broth with 2-fold serial dilutions of the test compound. All inoculated microdilution trays were incubated in ambient air at 35° C. for 18-24 hours. Following incubation, the lowest concentration of the compound that prevented visible growth (OD 600 nm<0.05) is recorded was the MIC. […] Performance of the assay was monitored by the use of laboratory quality-control strains and a standard compound with a defined MIC spectrum (neomycin), in accordance with CLSI guidelines.
Several compounds of the disclosure (Compounds 1, 2, 3, and 6) were further evaluated against a secondary panel of clinical isolates of multi-drug resistant bacterial pathogens including A. baumannii, methicillin-resistant Staphylococcus aureus (MRSA), P. aeruginosa, and carbapenem-resistant Enterobacteriaceae (CRE).

The test system of test [3] is all sets of organisms tested (SENTRY clinical isolates). Kind of test: Antibacterial surveillance, overall statement. The settings on record: all sets of organisms tested (Table 3); read-out: MIC50,90 values. As to the method: as §1, §2
Several compounds of the disclosure (Compound 1, 2, and 3) were further evaluated against several hundred bacterial isolates (isolated in the United States and Europe, 1:1) selected from the SENTRY Antimicrobial Surveillance Program (JMI Laboratories, North Liberty, Iowa). The set of clinical isolates included 300 randomly selected Enterobacterales, 103 randomly selected P. aeruginosa, 100 randomly selected A. baumannii-calcoaceticus, 20 randomly selected Methicillin-sensitive S. aureus (MSSA), and 30 randomly selected Methicillin-resistant S. aureus (MRSA). In addition, 101 Enterobacterales and 50 P. aeruginosa isolates with genetically defined mechanisms of aminoglycoside resistance were included. […]

Take `C[C@H](N)[C@@H]1CC[C@@H](N)[C@@H](O[C@@H]2[C@@H](N)[C@H](O)[C@@H](NC(=O)[C@@H](O)[C@H](F)CN)[C@H](O)[C@H]2O[C@@H]2O[C@H](CO)[C@@H](O[C@H]3O[C@@H](CN)[C@@H](O)[C@H](O)[C@H]3N)[C@H]2O)O1` [Compound 3, (2R,3R)-4-amino-N-((1R,2S,3S,4R,5R,6S)-3-amino-4-(((2R,3R,6S)-3-amino-6-((S)-1-aminoethyl)tetrahydro-2H-pyran-2-yl)oxy)-5-(((2S,3R,4S,5R)-4-(((2R,3R,4R,5S,6S)-3-amino-6-(aminomethyl)-4,5-dihydroxytetrahydro-2H-pyran-2-yl)oxy)-3-hydroxy-5-(hydroxymethyl)tetrahydrofuran-2-yl)oxy)-2,6-dihydroxycyclohexyl)-3-fluoro-2-hydroxybutanamide]: in test [1], the MIC50 was less than 16 µg/mL and the MIC90 is less than 16 µg/mL. Besides, the MIC in test [2] is not above 16 µg/mL. In test [3], the MIC50 is not above 16 µg/mL.
Turning to `C[C@H](N)[C@@H]1CC[C@@H](N)[C@@H](O[C@@H]2[C@@H](N)[C@H](O)[C@@H](NC(=O)[C@@H](O)CCN)[C@H](O)[C@H]2O[C@@H]2O[C@H](CO)[C@@H](O[C@H]3O[C@@H](CN)[C@@H](O)[C@H](O)[C@H]3N)[C@H]2O)O1` [Compound 6, (S)-4-Amino-N-((1R,2S,3S,4R,5R,6S)-3-Amino-4-(((2R,3R,6S)-3-Amino-6-((S)-1-Aminoethyl)Tetrahydro-2H-Pyran-2-Yl)Oxy)-5-(((2S,3R,4S,5R)-4-(((2R,3R,4R,5S,6S)-3-Amino-6-(Aminomethyl)-4,5-Dihydroxytetrahydro-2H-Pyran-2-Yl)Oxy)-3-Hydroxy-5-(Hydroxymethyl)Tetrahydrofuran-2-Yl)Oxy)-2,6-Dihydroxycyclohexyl)-2-Hydroxybutanamide], in test [2], the MIC was not above 16 µg/mL.
`NCC[C@H](O)C(=O)N[C@@H]1[C@@H](O)[C@H](N)[C@@H](O[C@H]2O[C@H](CN)CC[C@H]2N)[C@H](O[C@@H]2O[C@H](CO)[C@@H](O[C@H]3O[C@@H](CN)[C@@H](O)[C@H](O)[C@H]3N)[C@H]2O)[C@H]1O` [Compound 2, (S)-4-amino-N-((1R,2S,3S,4R,5R,6S)-3-amino-5-(((2S,3R,4S,5R)-4-(((2R,3R,4R,5S,6S)-3-amino-6-(aminomethyl)-4,5-dihydroxytetrahydro-2H-pyran-2-yl)oxy)-3-hydroxy-5-(hydroxymethyl)tetrahydrofuran-2-yl)oxy)-4-(((2R,3R,6S)-3-amino-6-(aminomethyl)tetrahydro-2H-pyran-2-yl)oxy)-2,6-dihydroxycyclohexyl)-2-hydroxybutanamide]: in test [1], the MIC50 was less than 16 µg/mL and the MIC90 is less than 16 µg/mL. Also, the MIC in test [2] is not above 16 µg/mL. In test [3], the MIC50 was not above 16 µg/mL.
On to `NC[C@@H]1CC[C@@H](N)[C@@H](O[C@@H]2[C@@H](N)[C@H](O)[C@@H](NC(=O)[C@@H](O)[C@H](F)CN)[C@H](O)[C@H]2O[C@@H]2O[C@H](CO)[C@@H](O[C@H]3O[C@@H](CN)[C@@H](O)[C@H](O)[C@H]3N)[C@H]2O)O1` [Compound 1, (2R,3R)-4-amino-N-((1R,2S,3S,4R,5R,6S)-3-amino-5-(((2S,3R,4S,5R)-4-(((2R,3R,4R,5S,6S)-3-amino-6-(aminomethyl)-4,5-dihydroxytetrahydro-2H-pyran-2-yl)oxy)-3-hydroxy-5-(hydroxymethyl)tetrahydrofuran-2-yl)oxy)-4-(((2R,3R,6S)-3-amino-6-(aminomethyl)tetrahydro-2H-pyran-2-yl)oxy)-2,6-dihydroxycyclohexyl)-3-fluoro-2-hydroxybutanamide], for which, in test [1], the MIC50 was less than 16 µg/mL and the MIC90 was less than 16 µg/mL. The MIC in test [2] was not above 16 µg/mL. For the same molecule, the MIC50 in test [3] is not above 16 µg/mL.
